Source: patent publication US20110275721A1, “METHOD FOR THE PURIFICATION OF SUBSTITUTED CYCLOPENT-2-EN-1-ONE CONGENERS AND SUBSTITUTED 1,3-CYCLOPENTADIONE CONGENERS FROM A COMPLEX MIXTURE USING COUNTERCURRENT SEPARATION” (Metaproteomics, LLC, priority 2008, published 2011)

Assay: Shake-flask liquid distribution ratio (Kd), Hexane:Water:Buffer of 10:9:1
Type: physicochemical
Conditions: THIAA Aug. 5, 2008
Procedure: Several shake-flask experiments were conducted to test several solvent systems and determine the liquid distribution ratio (Kd) and partition coefficient values for optimal separations. Partition coefficient values derived from shake-flask experiments are a reliable predictor of countercurrent chromatographic behavior. Kd is the concentration of the analyte in the upper phase divided by the concentration of the analyte in the lower phase and, in the alternative, may be listed as Ku/l.
General Procedure and Parameters for Shake Flask Experiments: Addition of 1 mL of the stock buffer at a known pH. Addition of the other necessary solvents to make up the system. Addition of the analyte mixture dissolved in hexane at 400 mg/mL. Final analyte concentration in the shake flask is 0.1 mg/mL. The flask was capped and mixed (by a vortex mixer) for 10 seconds. An aliquot was taken from the upper phase for HPLC analysis, and additionally a separate aliquot was taken from the lower phase for HPLC analysis from each flask. Each component was analyzed by HPLC and integrated using Shimadzu Class VP Software version 7.3 SP1.

SMILES | K Value (pH 4.9) | K Value (pH 5.5) | K Value (pH 5.6) | K Value (pH 6.0)
CCC(C)C(=O)C1=C(O)C(O)(C(=O)CCC(C)C)C(CCC(C)C)C1=O (stereo not drawn) [TH 3, trans tetra ad-isoalpha acid] | 60.3 | 17.8 | 11.4 | 5.5
CC(C)CCC(=O)[C@@]1(O)C(O)=C(C(=O)C(C)C)C(=O)[C@H]1CCC(C)C [TH 2, (−)-(4S,5S)-3,4-dihydroxy-2-isobutyryl-5-(3-methylbutyl)-4-(4-methylpentanoyl)cyclopent-2-en-1-one] | 10.8 | 2.5 | 1.8 | 0.9
CC(C)CCC(=O)[C@]1(O)C(O)=C(C(=O)C(C)C)C(=O)[C@H]1CCC(C)C [TH 1, (+)-(4R,5S)-3,4-dihydroxy-2-isobutyryl-5-(3-methylbutyl)-4-(4-methylpentanoyl)cyclopent-2-en-1-one] | 16.5 | 4.2 | 3.0 | 1.5
CC(C)CCC(=O)[C@]1(O)C(O)=C(C(=O)CC(C)C)C(=O)[C@H]1CCC(C)C [TH 5, (+)-(4R,5S)-3,4-dihydroxy-2-(3-methylbutanoyl)-5-(3-methylbutyl)-4-(4-methylpentanoyl)cyclopent-2-en-1-one] | 32.8 | 9.5 | 6.6 | 3.3
CCC(C)C(=O)C1=C(O)[C@@](O)(C(=O)CCC(C)C)[C@H](CCC(C)C)C1=O (single isomer, unassigned; (+)) [TH 4] | 55.6 | 16.1 | 11.0 | 5.5
